Data: patent US11299472B2, “Fumarate salt of (R)-3-(1-(2,3-dichloro-4-(pyrazin-2-yl)phenyl)-2,2,2- trifluoroethyl)-1-methyl-1-(1-methylpiperidin-4-yl) urea, methods of preparation, and uses thereof” (Helsinn Healthcare SA, priority 2017, dated 2022)
Where two headings read alike, the source gives them in different places.

Assay: Dog pharmacokinetic study, single oral HM04 fumarate salt 3, 10, 30 mg/kg (Example 10)
Format: in vivo, male Beagle dogs
Conditions: for concentration at 0.5 h: 0.50 hours
Procedure: The pharmacokinetics of HM04 in plasma after single oral administration of HM04 fumarate salt to 6-week old male Sprague Dawley rats and male Beagle dogs (1-5 years of age) was investigated. Test formulations of 0.6 mg/mL, 2 mg/mL, and 6 mg/mL HM04 fumarate salt (based on weight of the free base) were prepared in 5% glucose solution. Doses of 3, 10, and 30 mg/kg HM04 fumarate salt (based on weight of the free base) were administered by gastric gavage as a 5 mL/kg dose volume of each of the three test formulations. Four animals were in each dose group. The formulation was administered to the dogs in fasting conditions with food provided three hours post-dosing.
Oral absolute bioavailability at 3 mg/kg was calculated from the ratio of individual oral AUC∞ to the individual AUC∞ values determined following intravenous administration of 3 mg/kg HM04 fumarate salt (based on weight of the free base) to the same four male Beagle dogs.
Oral absolute bioavailability at 10 mg/kg was calculated from the ratio of individual oral AUC∞ to the individual AUC∞ values determined following intravenous administration of 10 mg/kg HM04 fumarate salt (based on weight of the free base) to the same four male Beagle dogs.
Plasma HM04 concentrations were measured by LC-MS/MS following protein precipitation in the 96-well plate format. At the time of analysis samples were thawed out at ambient temperature. Aliquots of 25 μL of rat or dog K3EDTA plasma were spiked with 300 μL of internal standard (25 ng/mL of HM04-d8 in acetonitrile). After gentle vortex mixing for 5 minutes and centrifugation at 2010 g for 15 minutes at 4° C., an aliquot of 100 μL of the organic phase was transferred into a fresh 96-well polypropylene plate, using a P3-Evolution robotic system (Perkin Elmer). Following dilution with 100 μL of […] ammonium formate pH 3.5, an aliquot of 10 μL was injected into the LC-MS/MS system.

[1] = male, Beagle, plasma, 3 mg/kg oral, n=4
[2] = male, Beagle, plasma, 10 mg/kg oral, n=4
[3] = male, Beagle, plasma, 30 mg/kg oral, n=4
[4] = oral dose range of 3 to 30 mg/kg

concentration at 4 h [1]: 0.185 ± 0.115 µg/mL
concentration at 8 h [1]: 0.0956 ± 0.0833 µg/mL
concentration at 24 h [1]: 0.00883 ± 0.0147 µg/mL
AUC(0-t) [1]: 2.16 ± 1.72 µg·h/mL
Cmax [1]: 0.425 ± 0.222 µg/mL
Tmax [1]: 0.875 ± 0.25 h
half-life (male, Beagle, plasma, 3 mg/kg oral, n=4, read-out: t1/2 (converted)): 4.02 ± 1.21 h
bioavailability (male, Beagle, plasma, 10 mg/kg oral vs 10 mg/kg intravenous, individual AUC∞ ratios): 68 ± 10%
concentration at 0 h (male, Beagle, plasma, 10 mg/kg oral, 0 hours (pre-dose), n=4): 0.00215 ± 0.0043 µg/mL
concentration at 0.25 h [2]: 0.307 ± 0.246 µg/mL
concentration at 0.5 h [2]: 0.862 ± 0.46 µg/mL
concentration at 1 h [2]: 1.51 ± 0.435 µg/mL
concentration at 2 h [2]: 1.17 ± 0.26 µg/mL
concentration at 4 h [2]: 0.789 ± 0.15 µg/mL
concentration at 8 h [2]: 0.468 ± 0.171 µg/mL
concentration at 24 h [2]: 0.0651 ± 0.0652 µg/mL
AUC(0-t) [2]: 10.9 ± 3.5 µg·h/mL
Cmax [2]: 1.51 ± 0.435 µg/mL
Tmax [2]: 1 h
half-life (male, Beagle, plasma, 10 mg/kg oral, n=4, read-out: t1/2 (converted)): 4.93 ± 1.31 h
concentration at 0.25 h [3]: 1.94 ± 1.33 µg/mL
concentration at 0.5 h [3]: 3.73 ± 1.56 µg/mL
concentration at 1 h [3]: 5.72 ± 1.2 µg/mL
concentration at 2 h [3]: 5.03 ± 0.71 µg/mL
concentration at 4 h [3]: 3.78 ± 0.577 µg/mL
concentration at 8 h [3]: 2.44 ± 0.176 µg/mL
concentration at 24 h [3]: 0.56 ± 0.147 µg/mL
AUC(0-t) [3]: 54 ± 6.01 µg·h/mL
Cmax [3]: 5.72 ± 1.2 µg/mL
Tmax [3]: 1 h
half-life (male, Beagle, plasma, 30 mg/kg oral, n=4, read-out: t1/2 (converted)): 6.97 ± 0.613 h
half-life (male, Beagle, plasma, intravenous, range, read-out: half-life after intravenous administration): 4 to 5 h
AUC(0-inf) (male, Beagle, plasma, iv, 3 mg/kg, Dog 1, 3 mg/kg intravenous, read-out: individual IV AUC∞): 6.19 µg·h/mL
AUC(0-inf) (male, Beagle, plasma, iv, 3 mg/kg, Dog 2, 3 mg/kg intravenous, read-out: individual IV AUC∞): 3.1 µg·h/mL
AUC(0-inf) (male, Beagle, plasma, iv, 3 mg/kg, Dog 3, 3 mg/kg intravenous, read-out: individual IV AUC∞): 3.21 µg·h/mL
AUC(0-inf) (male, Beagle, plasma, iv, 3 mg/kg, Dog 4, 3 mg/kg intravenous, read-out: individual IV AUC∞): 3.07 µg·h/mL
AUC(0-inf) (male, Beagle, plasma, iv, 10 mg/kg, Dog 1, 10 mg/kg intravenous, read-out: individual IV AUC∞): 22.5 µg·h/mL
AUC(0-inf) (male, Beagle, plasma, iv, 10 mg/kg, Dog 2, 10 mg/kg intravenous, read-out: individual IV AUC∞): 13.2 µg·h/mL
AUC(0-inf) (male, Beagle, plasma, iv, 10 mg/kg, Dog 3, 10 mg/kg intravenous, read-out: individual IV AUC∞): 15.5 µg·h/mL
AUC(0-inf) (male, Beagle, plasma, iv, 10 mg/kg, Dog 4, 10 mg/kg intravenous, read-out: individual IV AUC∞): 14.9 µg·h/mL
half-life (male, Beagle, plasma, oral 3 to 30 mg/kg, range, read-out: apparent terminal half-life): 4 to 7 h
AUC(0-inf) (male, Beagle, plasma, po, 3 mg/kg, Dog 1, 3 mg/kg oral, read-out: individual oral AUC∞): 4.93 µg·h/mL
AUC(0-inf) (male, Beagle, plasma, po, 3 mg/kg, Dog 2, 3 mg/kg oral, read-out: individual oral AUC∞): 1.44 µg·h/mL
AUC(0-inf) (male, Beagle, plasma, po, 3 mg/kg, Dog 3, 3 mg/kg oral, read-out: individual oral AUC∞): 1.16 µg·h/mL
AUC(0-inf) (male, Beagle, plasma, po, 3 mg/kg, Dog 4, 3 mg/kg oral, read-out: individual oral AUC∞): 1.85 µg·h/mL
AUC(0-inf) (male, Beagle, plasma, po, 10 mg/kg, Dog 1, 10 mg/kg oral, read-out: individual oral AUC∞): 17.5 µg·h/mL
AUC(0-inf) (male, Beagle, plasma, po, 10 mg/kg, Dog 2, 10 mg/kg oral, read-out: individual oral AUC∞): 8.78 µg·h/mL
AUC(0-inf) (male, Beagle, plasma, po, 10 mg/kg, Dog 3, 10 mg/kg oral, read-out: individual oral AUC∞): 8.47 µg·h/mL
AUC(0-inf) (male, Beagle, plasma, po, 10 mg/kg, Dog 4, 10 mg/kg oral, read-out: individual oral AUC∞): 10.9 µg·h/mL
time to maximal concentrations of HM04 (single oral administrations, post-dosing): ≤ 1 h
Compound: CN1CCC(N(C)C(=O)N[C@H](c2ccc(-c3cnccn3)c(Cl)c2Cl)C(F)(F)F)CC1.O=C(O)/C=C/C(=O)O [HM04 fumarate salt, (R)-3-(1-(2,3-dichloro-4-(pyrazin-2-yl)phenyl)-2,2,2-trifluoroethyl)-1-methyl-1-(1-methylpiperidin-4-yl)urea fumarate salt]
AUC versus dose [4]: increased more than in direct proportion with the dose
Cmax versus dose [4]: increased roughly proportionally with the dose
